Measurements published in ChEMBL document CHEMBL5537120 (Eur J Med Chem, 2024).
Activity calls are given as the source filed them. The rule behind the calls is not given here. Where a SMILES comes first, the peptide text is derived from it. Bridges are numbered along the chain shown (N, C = ends).

System: SARS-CoV-2
Assay: Antiviral activity against HIV-1 pseudotyped SARS-CoV-2 Omicron BA.2.75 infected in HEK293T cells harboring ACE2+/NRP1- assessed as reduction in infection rate pretreated with cells for 1 hr followed by viral infection and measured after 2 days by firefly luciferase reporter gene assay
Format: functional, organism-based
Conditions: Severe acute respiratory syndrome coronavirus 2, time 49.0 hrs

Structure (SMILES) | Activity
CC(C)C[C@@H]1NC(=O)[C@H](C)NC(=O)[C@H](CCCNC(=N)N)NC(=O)[C@@H](NC(=O)[C@@H]2CCCN2C(=O)[C@H](CO)NC(=O)[C@H](Cc2ccc(O)cc2)NC(=O)[C@H](CC(=O)O)NC(=O)CN)CSSC[C@@H](C(=O)N2CCC[C@H]2C(=O)N[C@@H](CO)C(=O)NCC(=O)N[C@@H](CC(=O)O)C(=O)N2CCC[C@H]2C(=O)N[C@@H](CCC(=O)O)C(=O)NCC(=O)NCC(=O)NCC(=O)N[C@@H](CCCNC(=N)N)C(=O)NCC(=O)N[C@@H](CCCNC(=N)N)C(=O)N[C@@H](CCCNC(=N)N)C(=O)N2CCC[C@H]2C(=O)N2CCC[C@H]2C(=O)N[C@@H](CCCNC(=N)N)C(=O)O)NC(=O)[C@H](CCCNC(=N)N)NC(=O)[C@H](Cc2c[nH]c3ccccc23)NC(=O)[C@H](Cc2c[nH]c3ccccc23)NC(=O)[C@@H]2CCCN2C(=O)[C@H](CO)NC(=O)[C@H](Cc2cnc[nH]2)NC(=O)[C@H](CCCNC(=N)N)NC1=O (H-GDYSPCRALRHSPWWRCPSGDPEGGGRGRRPPR-OH; disulfide 6-17) | Active
CC(C)C[C@@H]1NC(=O)[C@@H]2CCCN2C(=O)[C@H](CO)NC(=O)[C@@H](NC(=O)[C@H](Cc2cnc[nH]2)NC(=O)[C@H](CO)NC(=O)[C@H](Cc2ccccc2)NC(=O)[C@H](CC(=O)O)NC(=O)CN)CSSC[C@@H](C(=O)N[C@H](C(=O)N[C@@H](Cc2ccc(O)cc2)C(=O)N2CCC[C@H]2C(=O)N[C@@H](CC(=O)O)C(=O)N2CCC[C@H]2C(=O)N[C@@H](CCC(=O)O)C(=O)NCC(=O)NCC(=O)NCC(=O)N[C@@H](CCCCN)C(=O)N2CCC[C@H]2C(=O)N[C@@H](C)C(=O)N[C@@H](CCCNC(=N)N)C(=O)N2CCC[C@H]2C(=O)N[C@@H](C)C(=O)N[C@@H](CCCNC(=N)N)C(=O)O)[C@@H](C)O)NC(=O)[C@H](CCCCN)NC(=O)[C@H](Cc2ccccc2)NC(=O)[C@H](Cc2c[nH]c3ccccc23)NC(=O)[C@@H]2CCCN2C(=O)[C@H](Cc2ccccc2)NC(=O)[C@H](Cc2ccc(O)cc2)NC(=O)[C@H](CCCNC(=N)N)NC1=O (H-GDFSHCSPLRYFPWFKCTYPDPEGGGKPARPAR-OH; disulfide 6-17) | Active
CC[C@H](C)[C@H](NC(=O)[C@H](Cc1ccccc1)NC(=O)[C@H](CCCCN)NC(=O)[C@H](CC(=O)O)NC(=O)CN)C(=O)N[C@H]1CSSC[C@@H](C(=O)N[C@@H](CC(N)=O)C(=O)N[C@@H](Cc2c[nH]c3ccccc23)C(=O)N[C@@H](Cc2ccc(O)cc2)C(=O)N[C@@H](CC(=O)O)C(=O)N2CCC[C@H]2C(=O)N[C@@H](CCC(=O)O)C(=O)NCC(=O)NCC(=O)NCC(=O)N[C@@H](CCCCN)C(=O)NCC(=O)N[C@@H](CC(N)=O)C(=O)N[C@@H](CCCNC(=N)N)C(=O)N2CCC[C@H]2C(=O)N2CCC[C@H]2C(=O)N[C@@H](CCCNC(=N)N)C(=O)O)NC(=O)[C@H](Cc2ccccc2)NC(=O)[C@H](CCCCN)NC(=O)[C@H](Cc2c[nH]c3ccccc23)NC(=O)[C@@H]2CCCN2C(=O)[C@H](CCCCN)NC(=O)[C@H](CC(=O)O)NC(=O)[C@H](CCCNC(=N)N)NC(=O)[C@H]([C@@H](C)CC)NC(=O)[C@@H]2CCCN2C(=O)[C@H](CC(C)C)NC1=O (H-GDKFICLPIRDKPWKFCNWYDPEGGGKGNRPPR-OH; disulfide 6-17) | Active
CC(C)C[C@H](NC(=O)[C@H](CC(=O)O)NC(=O)CN)C(=O)N[C@@H](Cc1cnc[nH]1)C(=O)N[C@@H](C)C(=O)N[C@H]1CSSC[C@@H](C(=O)N[C@H](C(=O)N[C@@H](CC(C)C)C(=O)NCC(=O)N[C@@H](CC(=O)O)C(=O)N2CCC[C@H]2C(=O)N[C@@H](CCC(=O)O)C(=O)NCC(=O)NCC(=O)NCC(=O)N[C@@H](CCCNC(=N)N)C(=O)N[C@@H](CO)C(=O)N2CCC[C@H]2C(=O)N[C@@H](CCCNC(=N)N)C(=O)N[C@@H](CCCNC(=N)N)C(=O)N[C@@H](C)C(=O)N[C@@H](CCCNC(=N)N)C(=O)O)[C@@H](C)O)NC(=O)[C@H](C)NC(=O)[C@H](Cc2c[nH]c3ccccc23)NC(=O)[C@H](Cc2c[nH]c3ccccc23)NC(=O)[C@@H]2CCCN2C(=O)[C@H](CC(=O)O)NC(=O)CNC(=O)[C@H](CCCNC(=N)N)NC(=O)[C@H](C(C)C)NC(=O)[C@@H]2CCCN2C(=O)[C@H](CCCNC(=N)N)NC1=O (H-GDLHACRPVRGDPWWACTLGDPEGGGRSPRRAR-OH; disulfide 6-17) | Active
CC[C@H](C)[C@@H]1NC(=O)[C@@H]2CCCN2C(=O)[C@H](CO)NC(=O)[C@@H](NC(=O)[C@@H](NC(=O)[C@H](Cc2ccc(O)cc2)NC(=O)[C@H](CCCNC(=N)N)NC(=O)[C@H](CC(=O)O)NC(=O)CN)[C@@H](C)O)CSSC[C@@H](C(=O)N[C@@H](CC(=O)O)C(=O)N[C@@H](CC(C)C)C(=O)NCC(=O)N[C@@H](CC(=O)O)C(=O)N2CCC[C@H]2C(=O)N[C@@H](CCC(=O)O)C(=O)NCC(=O)NCC(=O)NCC(=O)N[C@@H](CCCCN)C(=O)N[C@@H](C)C(=O)N2CCC[C@H]2C(=O)N[C@@H](CCCNC(=N)N)C(=O)N[C@@H](CCCNC(=N)N)C(=O)N[C@@H](C)C(=O)N[C@@H](CCCNC(=N)N)C(=O)O)NC(=O)[C@H](CCCNC(=N)N)NC(=O)[C@H](Cc2c[nH]c3ccccc23)NC(=O)[C@H](Cc2c[nH]c3ccccc23)NC(=O)[C@@H]2CCCN2C(=O)[C@H](Cc2ccccc2)NC(=O)[C@H](CCSC)NC(=O)[C@H](CCCNC(=N)N)NC1=O (H-GDRYTCSPIRMFPWWRCDLGDPEGGGKAPRRAR-OH; disulfide 6-17) | Active
